The source of these data is patent US12234258B2, “Timosaponin compounds” (priority 2012, dated 2025).

Where two headings read alike, the source gives them in different places. A value given as a limit tells only on which side of the number the result lay.

What all share (type): cell-based
Assay [1] has as its system Aβ1-42 production in SweAPP N2A cells (N2A-APPswe). The experiment in a line: Aβ1-42 ELISA of conditioned medium of SweAPP N2A cells. A general note: In an ELISA, binding on a coated surface is turned into a signal by an enzyme label.
Description: Neuro-2A cells expressing Swedish mutants of (“SweAPP N2A cells”) was cultured in minimal essential medium with glutamine (2 mM), pyruvate (2 mM) and fetal bovine serum (10%). Cells were seeded at 6-well plate at 1×10^6 cells/mL and grown overnight. The medium was replaced.
Conditioned medium was diluted with 2 part volume of ELISA diluents. Aβ1-42 concentrations were determined by using human Aβ1-42 ultrasensitive ELISA kit (manufactured by Invitrogen).
Cell culture: Neuro-2A cells expressing Swedish mutants of APP (N2A-APPswe) ENREF 12 was cultured in minimal essential medium with 2 mM glutamine, 2 mM pyruvate and 10% fetal bovine serum. Cells were seeded at 6-well plate at 1×10^6 cells/mL and grown for two days until confluence. The medium was replaced and the test compounds were added at indicated concentrations for 24 hr.
For assay [2], the system named is HeLa, human cervical carcinoma cells. Nature of the assay: Growth of cancer cell lines: HeLa. The note with it: mean ± S.D., n = 3; read-out: IC50 against growth of HeLa.
In assay [3] the test system is SW480, human colon adenocarcinoma cells. The experiment in a line: Growth of cancer cell lines: SW480. The following applies: mean ± S.D., n = 3; read-out: IC50 against growth of SW480.
The test system of a further assay is Neuro-2A cells. The experiment in a line: Neurite outgrowth of N2A cells. The following applies: FIG. 19; TAIII 5 μM, TAI 10 μM, SSG 25 μM, 18 hr, type III β-tubulin staining.
Assay [4] relates to NCI-H460, human non-small lung carcinoma cells. Nature of the assay: Growth of cancer cell lines: NCI-H460. The note with it: mean ± S.D., n = 3; read-out: IC50 against growth of NCI-H460.
Assay [5] has as its system Notch cleavage by γ-secretase in N2A-APPswe cells. The experiment in a line: Notch cleavage by γ-secretase (NotchΔE/NICD immunoblot). The note with it: FIG. 20; at concentrations that effectively lower Aβ levels, 18 hr. How it is done: Immunoblot analysis: Cells were washed with phosphate buffered saline and lysed with buffer containing 50 mM Tris-Cl, pH 7.4, 150 mM NaCl, 1% Triton X-100 supplemented with protease inhibitors. Equal amount of proteins (30 μg) was resolved by 16.5% Tris-tricine gels and then transferred to nitrocellulose membrane with 0.2 µm pore size. For detection of secreted Aβ, sAPPα and sAPPβ, cells were treated with the timosaponins for 8 hr in complete medium which were then replaced with medium containing 0.1% FBS. After further incubation of 16 hr, 50 μL of the conditioned medium was mixed with SDS sample buffer and resolved accordingly. The membrane was blocked with Tris-buffered saline containing 0.1% TWEEN® 20 and 3% BSA and then incubated with primary antibodies at 4° C. overnight, followed with appropriate secondary antibodies for 2 hr. The primary antibodies were: APP c-terminal rabbit antibody (1:5000; Merck Bioscience) for detection of full length APP and APP-CTFs, mouse monoclonal 6E10 (Covance) for secreted Aβ and sAPPα, mouse monoclonal 6A1 (IBL) for sAPPβswe, ADAM-10 rabbit antibody (Millipore) and BACE1 rabbit antibody (Millipore). The immunoreactivities were detected using enhanced chemiluminescence reagents (GE Health care). […]
Background: Immunoblotting shows a protein as a band on a membrane.

For assay [6], the system named is HepG2, human hepatoma cells. The experiment in a line: Growth of cancer cell lines: HepG2. The note with it: mean ± S.D., n = 3; read-out: IC50 against growth of HepG2.
Assay [7] has as its system Aβ42, Aβ40 and Aβ38 in N2A-APPswe cells. Nature of the assay: Aβ42, Aβ40 and Aβ38 profiles in conditioned medium by ELISA. The note with it: FIG. 18, 18 hr. On the procedure:
Aβ ELISA: Aβ concentrations in conditioned medium were assayed using ELISA kits for human Aβ40, human Aβ42 (ultrasensitive) (Invitrogen) and Aβ38 (MyBioSource).
Cells were treated with various concentrations of (TAIII/TAI/AA/TAV) and DMSO vehicle (C) for 18 hr. In part A of FIG. 18, the expression of full length (FL) and CTF (c99 and c83) in cell lysates and secreted APP (sAPPα and sAPPP) in the conditioned medium were examined by immunoblot using methods specified in Example 6. In part B of FIG. 18, the profiles of Aβ42, Aβ40 and Aβ38 in the conditioned medium were determined by ELISA using methods specified in Example 5.

Setting [8] is: Table 4, N2A-APPswe cells, mean ± S.D, n ≥ 3, read-out: IC50 in lowering Aβ42 production.
Setting [9] is: Example 7, SweAPP N2A cells, Aβ1-42 ELISA, read-out: IC50, inhibition of Aβ production.
Where [10] appears, read: N2a-APPswe, read-out: IC50 in lowering Aβ42 production.

Description for Neuro-2A cells: Immunofluorescence examination of neurite outgrowth: Neuro-2A cells were seeded at 1×10^5 cells per glass bottom dish. After treatment, cells were fixed with 4% paraformaldyde for 10 min, permeabilized with 0.1% Trition X-100, and then blocked with 1% BSA in PBS. The cells were incubated with monoclonal antibody raised against type III β-tubulin (Sigma) for 1 hr followed by Alexa488 conjugated secondary antibody. Neurite morphology was examined under fluorescence microscope.

In the case of `C[C@@H]1CC[C@@]2(OC1)O[C@H]1C[C@H]3[C@@H]4CC=C5C[C@@H](O)CC[C@]5(C)[C@H]4CC[C@]3(C)[C@H]1[C@@H]2C` [Diosgenin], the IC50 in assay [1] (setting [8]) is over 100 µM.

Turning to `C[C@H]1CC[C@@]2(OC1)O[C@H]1C[C@H]3[C@@H]4CC[C@@H]5C[C@@H](O)CC[C@]5(C)[C@H]4CC[C@]3(C)[C@H]1[C@@H]2C` [Sarsasapogenin], the IC50 in assay [2] was 50 ± 2 µM; in assay [1] (setting [9]), about 20 µM; in assay [1] (setting [8]) it was 53 ± 9 µM; in assay [3], 29.4 ± 5.09 µM; in assay [4] it was 19.2 ± 0.45 µM; in assay [6], 32.6 ± 4.58 µM. For the same compound, the Neurite outgrowth entry in the assay with Neuro-2A cells was “significant extension and branching of neurites”. In addition, in assay [5], the “Notch processing (NotchΔE and NICD)” value is reported as “did not affect the Notch processing”.

For `C[C@@H]1CC[C@@]2(OC1)O[C@H]1C[C@H]3[C@@H]4CC[C@H]5C[C@@H](O)CC[C@]5(C)[C@H]4CC[C@]3(C)[C@H]1[C@@H]2C` [Tigogenin], the IC50 in assay [1] (setting [10]) was over 100 µM.

Consider `CC(C)[C@@H](C)/C=C/[C@@H](C)[C@H]1CC[C@H]2C3=CC=C4C[C@@H](O)CC[C@]4(C)[C@H]3CC[C@]12C` [Ergosterol, reference compound], for which the IC50 in assay [1] (setting [8]) was over 100 µM.

With `C[C@@H]1CC[C@@]2(OC1)O[C@H]1C[C@H]3[C@@H]4C[C@@H](O)[C@@H]5C[C@@H](O)CC[C@]5(C)[C@H]4CC[C@]3(C)[C@H]1[C@@H]2C` [5β-H, 6β-OH diosgenin], the IC50 in assay [1] (setting [8]) is over 100 µM.

For the compound `C[C@@H](CC[C@@]1(O)O[C@H]2C[C@H]3[C@@H]4CC[C@@H]5C[C@@H](O[C@@H]6O[C@H](CO)[C@H](O)[C@H](O)[C@H]6O[C@@H]6O[C@H](CO)[C@@H](O)[C@H](O)[C@H]6O)CC[C@]5(C)[C@H]4CC[C@]3(C)[C@H]2[C@@H]1C)CO[C@@H]1O[C@H](CO)[C@@H](O)[C@H](O)[C@H]1O` [Timosaponin BII], the IC50 in assay [2], in assay [3], in assay [4] and in assay [6] was over 100 µM each time.

In the case of `C[C@H]1CC[C@@]2(OC1)O[C@H]1C[C@H]3[C@@H]4C[C@@H](O)[C@@H]5C[C@@H](O)CC[C@]5(C)[C@H]4CC[C@]3(C)[C@H]1[C@@H]2C` [5β-H, 6β-OH yamogenin], the IC50 in assay [1] (setting [8]) stood at 45 ± 4 µM.

As to `C[C@H]1CC[C@@]2(OC1)O[C@H]1C[C@H]3[C@@H]4C[C@H](O)[C@H]5C[C@@H](O)CC[C@]5(C)[C@H]4CC[C@]3(C)[C@H]1[C@@H]2C` [5α-H, 6α-OH yamogenin], the IC50 in assay [1] (setting [8]) is over 100 µM.

For the compound `C[C@@H]1CC[C@@]2(OC1)O[C@H]1C[C@H]3[C@@H]4CC=C5C[C@@H](O[C@@H]6O[C@H](CO)[C@H](O)[C@H](O)[C@H]6O)CC[C@]5(C)[C@H]4CC[C@]3(C)[C@H]1[C@@H]2C` [Capsicoside A3], in assay [1] (setting [8]), the IC50 is over 100 µM.

For `C[C@H]1CC[C@@]2(OC1)O[C@H]1C[C@H]3[C@@H]4CC[C@@H]5C[C@@H](O[C@@H]6O[C@H](CO)[C@H](O)[C@H](O)[C@H]6O)CC[C@]5(C)[C@H]4CC[C@]3(C)[C@H]1[C@@H]2C` [Timosaponin AI], the IC50 was 44.5 ± 1.15 µM in assay [2]; about 20 µM in assay [1] (setting [9]); 5 µM in assay [1] (Example 9, SweAPP N2A cells, Aβ1-42 ELISA, read-out: ICS50, inhibitor of Aβ production); 6.1 ± 2.8 µM in assay [1] (setting [8]); 12.1 ± 3.83 µM in assay [3]; 10.2 ± 4.64 µM in assay [4]. Moreover, in assay [6], the IC50 came out at 10.5 ± 4.64 µM. Besides, the Neurite outgrowth result with Neuro-2A cells was “significant extension and branching of neurites”. Also, the “Aβ profile (Aβ42 vs Aβ40 and Aβ38)” value in assay [7] was “preferentially lower Aβ42 production”.

On to `CC(CO)CCC1OC2CC3C4CCC5CC(O)CCC5(C)C4CCC3(C)C2C1C` (stereo not shown) [Dihydrosarsasapogenin], for which, in assay [1] (setting [8]), the IC50 is over 100 µM.

As for `C[C@H]1CC[C@@]2(OC1)O[C@H]1C[C@H]3[C@@H]4CC=C5C[C@@H](O)CC[C@]5(C)[C@H]4CC[C@]3(C)[C@H]1[C@@H]2C` [Yamogenin], the IC50 in assay [1] (setting [8]) was over 100 µM.

`C[C@H]1CC[C@@]2(OC1)O[C@H]1C[C@H]3[C@@H]4CC[C@@H]5C[C@H](O)CC[C@]5(C)[C@H]4CC[C@]3(C)[C@H]1[C@@H]2C` [Episarsasapogenin]: in assay [1] (setting [8]), the IC50 was over 100 µM.

As to `C[C@H]1CC[C@@]2(OC1)O[C@H]1C[C@H]3[C@@H]4CC[C@@H]5C[C@@H](O[C@@H]6O[C@H](CO)[C@H](O[C@@H]7O[C@H](CO)[C@@H](O)[C@H](O)[C@H]7O)[C@H](O)[C@H]6O[C@@H]6O[C@H](CO)[C@@H](O)[C@H](O)[C@H]6O)CC[C@]5(C)[C@H]4CC[C@]3(C)[C@H]1[C@@H]2C` [Timosaponin AV], the IC50 in assay [2] came out at 21.6 ± 5.2 µM; in assay [1] (setting [8]), 4.2 ± 1.2 µM; in assay [3] it was 21.7 ± 2.27 µM; in assay [4] it was 20 ± 0.71 µM; in assay [6], 17.4 ± 4.29 µM. Further, in assay [7], the “Aβ profile (Aβ42 vs Aβ40 and Aβ38)” value is reported as “preferentially lower Aβ42 production”.

As to `C[C@@H]1CC[C@@]2(OC1)O[C@H]1C[C@H]3[C@@H]4C[C@H](O)[C@H]5C[C@@H](O)CC[C@]5(C)[C@H]4CC[C@]3(C)[C@H]1[C@@H]2C` [5α-H, 6α-OH diosgenin], the IC50 in assay [1] (setting [8]) is over 100 µM.

In the case of `C[C@@H]1CC[C@@]2(OC1)O[C@H]1C[C@H]3[C@@H]4CC[C@@H]5C[C@@H](O)CC[C@]5(C)[C@H]4CC[C@]3(C)[C@H]1[C@@H]2C` [Smilagenin], in assay [1] (setting [10]), the IC50 is over 100 µM.

Regarding `C[C@H]1CC[C@@]2(OC1)O[C@H]1C[C@H]3[C@@H]4CC[C@H]5C[C@@H](O)CC[C@]5(C)[C@H]4CC[C@]3(C)[C@H]1[C@@H]2C` [Neotigogenin], in assay [1] (setting [10]), the IC50 was over 100 µM.

In the case of `C[C@@H]1CC[C@@]2(OC1)O[C@H]1C[C@H]3[C@@H]4CC[C@@H]5CC(=O)CC[C@]5(C)[C@H]4CC[C@]3(C)[C@H]1[C@@H]2C` [Sarsasapogenone], the IC50 in assay [1] (setting [8]) turned out to be 50 ± 5 µM.

On to `C[C@H]1CC[C@@]2(OC1)O[C@H]1C[C@H]3[C@@H]4CC[C@@H]5C[C@@H](O[C@@H]6O[C@H](CO)[C@@H](O)[C@H](O)[C@H]6O)CC[C@]5(C)[C@H]4CC[C@]3(C)[C@H]1[C@@H]2C` [Asparagoside A], for which the IC50 stood at 65.4 ± 20.9 µM in assay [2]; 6 ± 1.4 µM in assay [1] (setting [8]); 15.6 ± 1.96 µM in assay [3]; 14.1 ± 0.64 µM in assay [4]; 7.72 ± 2.68 µM in assay [6]. Also, the Neurite outgrowth result in the assay on Neuro-2A cells was “significant extension and branching of neurites”. Also, the “Aβ profile (Aβ42 vs Aβ40 and Aβ38)” value in assay [7] is recorded as “preferentially lower Aβ42 production”.

For the compound `C[C@H]1CC[C@@]2(OC1)O[C@H]1C[C@H]3[C@@H]4CC[C@@H]5C[C@@H](OCC(=O)O)CC[C@]5(C)[C@H]4CC[C@]3(C)[C@H]1[C@@H]2C` [Ethereal SSG], in assay [1] (setting [10]), the IC50 was determined as 27 ± 8 µM. Besides, the “Notch processing (NotchΔE and NICD)” value in assay [5] is given as “did not affect the Notch processing”.

Regarding `CO[C@]1(CC[C@H](C)CO[C@@H]2O[C@H](CO)[C@@H](O)[C@H](O)[C@H]2O)O[C@H]2C[C@H]3[C@@H]4CC[C@@H]5C[C@@H](O[C@@H]6O[C@H](CO)[C@H](O)[C@H](O)[C@H]6O[C@@H]6O[C@H](CO)[C@@H](O)[C@H](O)[C@H]6O)CC[C@]5(C)[C@H]4CC[C@]3(C)[C@H]2[C@@H]1C` [Timosaponin BI], the IC50 in assay [2], in assay [1] (setting [8]), in assay [3], in assay [4] and in assay [6] was over 100 µM each time.
